Results as given in patent publication US10214540B2, “Compound having agonistic activity on somatostatin receptor, and use thereof for medical purposes” (ONO PHARMACEUTICAL CO., LTD., priority 2012, dated 2019).

Columns and labels:
[1] = tested on: Growth Hormone (GH) secretion; test: Evaluation of Growth Hormone (GH) secretory inhibitory activity using rat (GHRH-evoked); type: in vivo
Method: Evaluation of Growth Hormone (GH) secretory inhibitory activity using rat.
Test compounds dissolved in vehicle (distillated water (Otsuka jouryuusui, Otsuka Pharmaceutical Factory, Inc.) or vehicle only was administered to rat (7-week-old, male Crl: CD (SD) IGS rat (CHARLES RIVER LABORATORIES JAPAN, INC.)) orally, and 27 min. later, 50 mg/kg of sodium pentobarbital (Somunopentil® Kyoritsu Seiyaku) was administered by tail vein injection to be anesthetized. Three minutes after administration of sodium pentobarbital, 0.01 mg/kg of growth hormone-releasing hormone (GHRH, Bachem) was administered by tail vein injection to evoke GH secretion. To measure blood concentration of GH, 0.2 mL blood sample from cervical vein was collected 5 minutes after administration of GHRH. The blood samples were treated with centrifugation at 13,000 g at 4° C. for 5 min. to obtain plasma sample. Blood concentration of GH was determined by Rat/Mouse Growth Hormone ELISA (Millipore) according to the procedure manual.
Test compounds dissolved in vehicle (distillated water (Otsuka jouryuusui, Otsuka Pharmaceutical Factory, Inc.) or vehicle only was administered to rat (7-week-old, male Crl: CD (SD) IGS rat (CHARLES RIVER LABORATORIES JAPAN, INC.)) orally, and 7 hours 57 minutes later, 50 mg/kg of sodium pentobarbital (Somunopentil® Kyoritsu Seiyaku) was administered by tail vein injection to be anesthetized. Three min. after administration of sodium pentobarbital, 0.01 mg/kg of growth hormone-releasing hormone (GHRH, Bachem) was given by tail vein injection to evoke GH secretion. Procedure after that was same as [Procedure (A)]

[2] = tested on: cultured human hepatocyte; test: Evaluation of the cell toxicity using cultured human hepatocyte (ATP, Celltiter-Glo); type: cell-based; settings: IC50 of Biological Example 4 / EC50 of Biological Example 1
Method: (§1) Evaluation of the cell toxicity using cultured human hepatocyte.
(§2) Frozen adherent human hepatocyte was thawed and suspended in hepatocyte cultured medium (HCM) purchased from Lonza, and then seeded in 96 wells plate coated by collagen. The hepatocytes were cultured overnight in the incubator (5% carbon dioxide, 95% air, 37° C.) and its medium was replaced with medium including test compounds ([…]) and cultured for 24 hours more. The cell toxicity was evaluated by measurement of ATP concentration in the cells. Specifically, using Promega Celltiter-Glo luminescent assay kit made by Promega KK, the cells were dissolved in an accompanying assay buffer and the ATP concentration released from the cells was determined by an emission of light of the luciferin-luciferase enzyme activity. The emission of light was measured by Molecular device's SpectraMax plate reader. A degree of toxicity was shown 50% inhibitory compound concentration of the emission of light (IC50).

[3] = as above; type: cell-based; settings: cultured adherent human hepatocytes (thawed from frozen); cultured human hepatocytes, 24 hours, ATP concentration; read-out: IC50 (50% inhibitory compound concentration of the emission of light, cell toxicity)
Method: as §1, §2

[4] = target: T1, human SSTR2 (Homo sapiens, UniProt P30874); test: Evaluation of SSTR2 agonist activity using human SSTR2 expressing cells (inhibition of Forskolin-stimulated cAMP production in SSTR2-CHO-K1); type: cell-based; settings: read-out: EC50 of agonist activity against human SSTR2
T1 construct: Myc; expressed in transfected cells
T1 sequence (P30874 whole entry): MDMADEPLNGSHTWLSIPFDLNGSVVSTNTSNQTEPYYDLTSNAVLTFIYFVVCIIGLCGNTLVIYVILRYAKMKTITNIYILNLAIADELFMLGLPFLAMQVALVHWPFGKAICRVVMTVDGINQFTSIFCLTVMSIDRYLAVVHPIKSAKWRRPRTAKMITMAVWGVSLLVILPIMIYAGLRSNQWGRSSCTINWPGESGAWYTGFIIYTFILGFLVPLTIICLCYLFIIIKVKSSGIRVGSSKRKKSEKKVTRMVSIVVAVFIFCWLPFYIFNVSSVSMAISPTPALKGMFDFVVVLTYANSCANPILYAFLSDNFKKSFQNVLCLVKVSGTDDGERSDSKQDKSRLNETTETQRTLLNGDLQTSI
Method: Evaluation of SSTR2 Agonist Activity Using Human SSTR2 Expressing Cells
CHO-K1 (−) were cultured using Ham's F-12 (including FBS (10%), penicillin (100 U/mL) and streptomycin (0.1 mg/mL)) as medium. The transduced cells were cultured using the medium above with geneticin (1 mg/ml).
The plasmid pIRESneo-Myc/hSSTR2 was transduced into CHO-K1 (−) cell using Lipofectamine 2000 (Invitrogen). After 48 hours, the medium was changed to the medium including 1 mg/mL Geneticin, overexpressing cells were selected and stably overexpressing cells (SSTR2-CHO-K1) were established.
Human SSTR2 agonist activity of test compounds was evaluated by following procedure using inhibition activity against intracellular cyclic AMP (cAMP) production stimulated by Forskolin as an indicator. The SSTR2-CHO-K1 cells suspended in Ham's F-12 medium (including fetal bovine serum (10%), penicillin (100 U/mL), streptomycin (0.1 mg/mL)) including 0.25 mg/mL Geneticin was seeded in 96 wells plate (4.0×10^4 cells/0.1 mL/1 well). After 1 day, the medium was removed and the cells were washed with 0.1 mL of wash buffer solution [0.1% bovine serum albumin (BSA), Hank's Balanced Salt Solution (HBSS) including 20 mmol/L 4-(2-hydroxyethyl)-1-piperazine ethanesulfonic acid (HEPES)] twice. To the cells added 0.06 mL/well assay buffer [500 nmol/L 3-isobutyl-1-methylxanthine (IBMX), 0.1% BSA, 20 mmol/L HBSS including HEPES], and incubated for 15 min. under 5% CO2 and 37° C. Next, to the cells added 0.06 mL/well assay buffer including test compounds of the double concentration of final concentration and 0.02 mmol/L Forskolin, and incubated for 30 min. under 5% CO2 and 37° C. After that, to the cells added 0.12 mL/well Assay/Lysis buffer included with cAMP-Screen® kit (Applied Biosystems®), and incubated for 30 min. under 5% CO2 and 37° C. The concentration of c-AMP is determined by ELISA test according to manual included with the kit.

[5] = target: somatostatin receptor subtype 1 (SSTR1) (Homo sapiens, UniProt P30872); settings: reported in background art; cited from earlier work
Chain of somatostatin receptor subtype 1 (SSTR1) (P30872 whole entry, species assumed): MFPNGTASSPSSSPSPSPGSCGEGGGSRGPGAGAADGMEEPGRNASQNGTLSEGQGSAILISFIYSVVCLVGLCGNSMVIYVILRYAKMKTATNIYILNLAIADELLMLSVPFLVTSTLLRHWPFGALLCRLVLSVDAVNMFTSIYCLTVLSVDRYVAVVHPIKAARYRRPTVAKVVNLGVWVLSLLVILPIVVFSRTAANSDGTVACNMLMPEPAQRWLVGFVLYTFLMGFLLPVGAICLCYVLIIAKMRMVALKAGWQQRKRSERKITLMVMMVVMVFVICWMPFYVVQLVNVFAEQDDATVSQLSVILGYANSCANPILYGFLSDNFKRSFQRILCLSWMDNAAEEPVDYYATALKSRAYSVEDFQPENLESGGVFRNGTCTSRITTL

[6] = target: somatostatin receptor subtype 4 (SSTR4) (Homo sapiens, UniProt P31391); settings: reported in background art; cited from earlier work
Chain of somatostatin receptor subtype 4 (SSTR4) (P31391 whole entry, species assumed): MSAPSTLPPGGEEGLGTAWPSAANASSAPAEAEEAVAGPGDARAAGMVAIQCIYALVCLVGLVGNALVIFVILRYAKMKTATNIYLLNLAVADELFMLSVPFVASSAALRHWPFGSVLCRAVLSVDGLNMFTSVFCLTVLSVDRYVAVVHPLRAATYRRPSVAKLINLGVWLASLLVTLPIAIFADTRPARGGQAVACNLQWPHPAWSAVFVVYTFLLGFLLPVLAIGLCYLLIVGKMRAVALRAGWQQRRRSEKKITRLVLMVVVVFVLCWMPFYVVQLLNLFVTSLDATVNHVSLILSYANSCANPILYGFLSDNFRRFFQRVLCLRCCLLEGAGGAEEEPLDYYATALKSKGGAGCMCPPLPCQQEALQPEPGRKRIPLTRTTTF

[7] = target: somatostatin receptor subtype 3 (SSTR3) (Homo sapiens, UniProt P32745); settings: reported in background art; cited from earlier work
Chain of somatostatin receptor subtype 3 (SSTR3) (P32745 whole entry, species assumed): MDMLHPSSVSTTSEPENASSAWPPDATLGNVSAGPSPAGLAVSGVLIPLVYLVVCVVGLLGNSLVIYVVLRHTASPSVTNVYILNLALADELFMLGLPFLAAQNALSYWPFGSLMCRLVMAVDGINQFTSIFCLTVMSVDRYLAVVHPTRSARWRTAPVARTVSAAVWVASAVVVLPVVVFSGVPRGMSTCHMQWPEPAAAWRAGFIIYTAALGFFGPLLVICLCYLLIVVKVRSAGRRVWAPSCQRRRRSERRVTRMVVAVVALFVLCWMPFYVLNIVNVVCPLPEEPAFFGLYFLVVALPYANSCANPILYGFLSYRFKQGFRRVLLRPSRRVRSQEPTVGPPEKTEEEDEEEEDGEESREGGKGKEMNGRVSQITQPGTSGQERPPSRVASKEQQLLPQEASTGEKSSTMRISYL

[8] = target: somatostatin receptor subtype 2 (SSTR2) (Homo sapiens, UniProt P30874); settings: reported in background art; cited from earlier work
Chain of somatostatin receptor subtype 2 (SSTR2) (P30874 whole entry, species assumed): as the sequence (P30874 whole entry) above

[9] = tested on: gastric acid secretion; test: Evaluation of the gastric-acid secretion inhibitory activity using rat (gastric outlet tied off); type: in vivo; settings: dose of 0.3 mg/kg, subcutaneously
Method: Evaluation of the gastric-acid secretion inhibitory activity using rat.
After closing the laparotomy department, vehicle only (saline (Otsuka seishokuchu, Otsuka Pharmaceutical Factory, Inc.) or test compounds which were dissolved in vehicle were administered subcutaneously immediately, and the rats were recovered from anesthesia. After 2 hours from tying gastric outlet, the rats were treated with abdominal operation under isoflurane anesthesia again, pinched cardiac end of the stomach with forceps and exsanguinated to death. After stomach contents were centrifugalized at 500 g for 15 min. and the supernatant was separated as gastric fluid, the volume of gastric fluid was determined based on weight (mL/100 g BW). Furthermore, acid concentration of gastric fluid (mmol/mL) was determined by back titration using COM-1600ST automatic titrator (Hitachi High-Technologies Corporation (Hiranuma sangyo Co., Ltd.)).

[10] = 1 mg/kg orally, Procedure (B): administered 8 hours before

Row | Structure (SMILES) | ratio of GH secretion inhibition [1, 10] [%] | ratio of IC50 (hepatocyte toxicity) divided by SSTR2 agonist activity (EC50) [2] | IC50 at 24 h [3] [µM] | EC50 [4] [nM] | other results
1 | Cc1cc(F)cc(-c2cncc(/C=C/c3cncc(C#N)c3)c2N2CC[C@H]3NCCO[C@@H]3C2)c1 (racemic) [Example 36(8), 5-[(E)-2-{5-(3-fluoro-5-methylphenyl)-4-[rac-(4aR,8aR)-octahydro-6H-pyrido[3,4-b][1,4]oxazin-6-yl]-3-pyridinyl}vinyl]nicotinonitrile] | 83 | 2,030,000 times | 69 | 0.034 | 
2 | Cc1cc(C)cc(-c2cncc(-c3ccc(C(F)(F)F)cc3)c2N2CCC(N)CC2)c1 [Example 26(15), 1-{3-(3,5-dimethylphenyl)-5-[4-(trifluoromethyl)phenyl]-4-pyridinyl}-4-piperidinamine] |  |  |  |  | ratio of GH secretion inhibition ([1]; 3 mg/kg orally, Procedure (B): administered 8 hours before): 92%
3 | Cc1cc(F)cc(-c2cncc(-c3ccc(C(F)(F)F)cc3)c2N2CCC(N)CC2)c1 [Example 26(24), 1-{3-(3-fluoro-5-methylphenyl)-5-[4-(trifluoromethyl)phenyl]-4-pyridinyl}-4-piperidinamine] | 91 | 710,000 times | 35 | 0.049 | 
4 | CC(C)[C@@H]1NC(=O)[C@H](CCCCN)NC(=O)[C@@H](Cc2c[nH]c3ccccc23)NC(=O)[C@H](Cc2ccc(O)cc2)NC(=O)[C@@H](NC(=O)[C@H](N)Cc2ccc3ccccc3c2)CSSC[C@@H](C(=O)N[C@H](C(N)=O)[C@@H](C)O)NC1=O [Lanreotide acetate] |  |  |  |  | binding to SSTR1 (in words) [5]: not to bind; binding to SSTR4 (in words) [6]: not to bind; binding affinity to SSTR3 (in words) [7]: moderate affinity; binding affinity to SSTR2 (in words) [8]: high affinity
5 | Cc1cc(C)cc(-c2cnc3cc(Cl)c(-c4cnn(C)c4)cc3c2OCC[C@H]2CCCCN2)c1 [formula (M), reference compound] |  |  | 13 |  | 
6 | Cc1cc(F)cc(-c2cncc(/C=C/c3cccc(C#N)c3)c2N2CCC(N)CC2)c1 [Example 36(5), 3-{(E)-2-[4-(4-amino-1-piperidinyl)-5-(3-fluoro-5-methylphenyl)-3-pyridinyl]vinyl}benzonitrile] | 92 | 1,190,000 times | 19 | 0.016 | 
7 | Cc1cc(C)cc(NC(=O)c2cncc(-c3cc(C)cc(C)c3)c2N2CCC(CN)CC2)c1 [Example 2(20), 4-[4-(aminomethyl)-1-piperidinyl]-N,5-bis(3,5-dimethylphenyl)pyridine-3-carboxamide] |  | 6,670,000 times | 40 | 0.006 | ratio of gastric acid secretion inhibition [9]: 89%; ratio of GH secretion inhibition ([1]; 3 mg/kg orally, Procedure (A): administered 30 min before): 97%
